Inconclusive results and toxic doses are left out. No stated cut-off is given here; in the data, active means T/C of 150% or more; inactive means T/C below 125%.
Tested on: L1210 leukemia ip in BDF1 mice, survival T/C
Experiment: NCI In Vivo Anticancer Drug Screen. Data for tumor model L1210 Leukemia (intraperitoneal) in B6D2F1 (BDF1) mice
Details: endpoint: mean survival time, higher = longer survival
Outline: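 Antitumor effect is assessed in tumor-bearing animals. Survival in the compound arm is compared with a vehicle-dosed control arm and expressed as their quotient.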

[1] = dose: 25.0 mg/kg/injection, schedule: Q01DX009 (ip), vehicle: saline
[2] = dose: 100.0 mg/kg/injection, schedule: Q01DX009 (ip), vehicle: saline
[3] = dose: 200.0 mg/kg/injection, schedule: Q01DX009 (ip), vehicle: saline
[4] = dose: 400.0 mg/kg/injection, schedule: Q01DX009 (ip), vehicle: saline
[5] = dose: 100.0 mg/kg/injection, schedule: Q01DX001 (ip), vehicle: saline
[6] = dose: 200.0 mg/kg/injection, schedule: Q01DX001 (ip), vehicle: saline
[7] = dose: 400.0 mg/kg/injection, schedule: Q01DX001 (ip), vehicle: saline
[8] = dose: 100.0 mg/kg/injection, schedule: Q04DX003 (ip), vehicle: saline with Tween-80
[9] = dose: 200.0 mg/kg/injection, schedule: Q04DX003 (ip), vehicle: saline with Tween-80
[10] = dose: 400.0 mg/kg/injection, schedule: Q04DX003 (ip), vehicle: saline with Tween-80

Measured: T/C

CCOC(=O)CNC(=O)CNC(=O)CNC(=O)CCCCSc1ncnc2nc[nH]c12
inactive: [1] 102 % of control | dose: 25.0 mg/kg/injection, schedule: Q01DX009 (oral), vehicle: saline 106 % of control | dose: 50.0 mg/kg/injection, schedule: Q01DX009 (ip), vehicle: saline 110 % of control | dose: 50.0 mg/kg/injection, schedule: Q01DX009 (oral), vehicle: saline 90 % of control | [2] 96 % of control | dose: 100.0 mg/kg/injection, schedule: Q01DX009 (oral), vehicle: saline 98 % of control | [3] 104 % of control | dose: 200.0 mg/kg/injection, schedule: Q01DX009 (oral), vehicle: saline 95 % of control | [4] 98 % of control | dose: 400.0 mg/kg/injection, schedule: Q01DX009 (oral), vehicle: saline 114 % of control | dose: 800.0 mg/kg/injection, schedule: Q01DX009 (ip), vehicle: saline 96 % of control | dose: 800.0 mg/kg/injection, schedule: Q01DX009 (oral), vehicle: saline 101 % of control

O=S(=O)(Oc1ccc(-c2ccccc2)cc1)C1CC1c1ccccc1 (centres undefined)
inactive: [5] 93 % of control | dose: 100.0 mg/kg/injection, schedule: Q04DX003 (ip), vehicle: saline 93 % of control | [6] 97 % of control | dose: 200.0 mg/kg/injection, schedule: Q04DX003 (ip), vehicle: saline 96 % of control | [7] 90 % of control | dose: 400.0 mg/kg/injection, schedule: Q04DX003 (ip), vehicle: saline 91 % of control

O=c1[nH]cnc2c1cnn2C1OC(CO)C(O)C1O (centres undefined)
inactive: dose: 12.5 mg/kg/injection, schedule: Q01DX005 (ip), vehicle: water 92 % of control | dose: 25.0 mg/kg/injection, schedule: Q01DX005 (ip), vehicle: water 106 % of control | dose: 50.0 mg/kg/injection, schedule: Q01DX005 (ip), vehicle: water 97 % of control | dose: 100.0 mg/kg/injection, schedule: Q01DX005 (ip), vehicle: water 108 % of control | dose: 200.0 mg/kg/injection, schedule: Q01DX005 (ip), vehicle: water 93 % of control

CC(C)OP(=O)(NO)OC(C)C
inactive: [5] 97 % of control | [6] 92 % of control | [7] 90 % of control

CNC(=O)N(C)Cc1ccccc1
inactive: [2] 107 % of control | [8] 104 % of control | [3] 115 % of control | [9] 93 % of control | [4] 117 % of control | [10] 104 % of control

Cc1ccc(N=C(N)NC#N)cc1C
inactive: [8] 102 % of control | [9] 102 % of control | [10] 102 % of control

C#CCOCCC#N
inactive: dose: 100.0 mg/kg/injection, schedule: Q04DX002 (ip), vehicle: saline 101 % of control | dose: 200.0 mg/kg/injection, schedule: Q04DX002 (ip), vehicle: saline 94 % of control

COc1cc(N2C(N)=NC(N)=NC2(C)C)cc(OC)c1OC
inactive: dose: 6.25 mg/kg/injection, schedule: Q01DX009 (ip), vehicle: saline 98 % of control | dose: 12.5 mg/kg/injection, schedule: Q01DX009 (ip), vehicle: saline 105 % of control | [1] 107 % of control

Cc1cccc2cc3cccc(C)[n+]3cc12
inactive: dose: 5.0 mg/kg/injection, schedule: Q01DX001 (ip), vehicle: other 100 % of control | dose: 10.0 mg/kg/injection, schedule: Q01DX001 (ip), vehicle: other 97 % of control | dose: 20.0 mg/kg/injection, schedule: Q01DX001 (ip), vehicle: other 100 % of control

O=C(Nc1ccc(F)cc1)c1ccc([N+](=O)[O-])cc1
inactive: dose: 100.0 mg/kg/injection, schedule: Q04DX002 (ip), vehicle: Klucel (hydroxypropylcellulose) (HPC) 95 % of control | dose: 200.0 mg/kg/injection, schedule: Q04DX002 (ip), vehicle: Klucel (hydroxypropylcellulose) (HPC) 95 % of control | dose: 400.0 mg/kg/injection, schedule: Q04DX002 (ip), vehicle: Klucel (hydroxypropylcellulose) (HPC) 92 % of control

Cc1cc2ccccc2cn1
inactive: dose: 50.0 mg/kg/injection, schedule: Q01DX001 (ip), vehicle: other 103 % of control | dose: 100.0 mg/kg/injection, schedule: Q01DX001 (ip), vehicle: other 101 % of control | [8] 96 % of control | dose: 200.0 mg/kg/injection, schedule: Q01DX001 (ip), vehicle: other 95 % of control | [9] 103 % of control

O=S(=O)(c1ccc(Br)cc1)c1ccc(Br)cc1
inactive: [8] 98 % of control | [9] 98 % of control | [10] 104 % of control

CN=C(N)N/N=C/C(C)=N/NC(N)=NC
inactive: dose: 15.0 mg/kg/injection, schedule: Q01DX Z (ip), vehicle: saline 96 % of control | dose: 30.0 mg/kg/injection, schedule: Q01DX Z (ip), vehicle: saline 106 % of control | dose: 60.0 mg/kg/injection, schedule: Q01DX Z (ip), vehicle: saline 104 % of control | dose: 120.0 mg/kg/injection, schedule: Q01DX Z (ip), vehicle: saline 95 % of control

CC1(C)C(=NC2CCCCC2)C(C)(C)C1=NC1CCCCC1
inactive: dose: 75.0 mg/kg/injection, schedule: Q01DX001 (ip), vehicle: saline 101 % of control | dose: 150.0 mg/kg/injection, schedule: Q01DX001 (ip), vehicle: saline 100 % of control | dose: 300.0 mg/kg/injection, schedule: Q01DX001 (ip), vehicle: saline 100 % of control

OC1C2c3ccccc3C(c3c2cc(F)c2ccccc32)C1O (centres undefined)
inactive: dose: 37.5 mg/kg/injection, schedule: Q01DX001 (ip), vehicle: Klucel (hydroxypropylcellulose) (HPC) 102 % of control | dose: 75.0 mg/kg/injection, schedule: Q01DX001 (ip), vehicle: Klucel (hydroxypropylcellulose) (HPC) 96 % of control | dose: 150.0 mg/kg/injection, schedule: Q01DX001 (ip), vehicle: Klucel (hydroxypropylcellulose) (HPC) 104 % of control

Source: PubChem BioAssay AID248 (DTP/NCI, 2004)
